Test results taken from the Kinase Knowledgebase extract (Sharma et al. 2016).
pIC50: −log10 of the molar value.

Molecular target: PIK3CA (human) (UniProt P42336)
Assay: Assessment of PIK3CA Kinase Activity

Sequence of PIK3CA (human) (P42336 whole entry, looked up): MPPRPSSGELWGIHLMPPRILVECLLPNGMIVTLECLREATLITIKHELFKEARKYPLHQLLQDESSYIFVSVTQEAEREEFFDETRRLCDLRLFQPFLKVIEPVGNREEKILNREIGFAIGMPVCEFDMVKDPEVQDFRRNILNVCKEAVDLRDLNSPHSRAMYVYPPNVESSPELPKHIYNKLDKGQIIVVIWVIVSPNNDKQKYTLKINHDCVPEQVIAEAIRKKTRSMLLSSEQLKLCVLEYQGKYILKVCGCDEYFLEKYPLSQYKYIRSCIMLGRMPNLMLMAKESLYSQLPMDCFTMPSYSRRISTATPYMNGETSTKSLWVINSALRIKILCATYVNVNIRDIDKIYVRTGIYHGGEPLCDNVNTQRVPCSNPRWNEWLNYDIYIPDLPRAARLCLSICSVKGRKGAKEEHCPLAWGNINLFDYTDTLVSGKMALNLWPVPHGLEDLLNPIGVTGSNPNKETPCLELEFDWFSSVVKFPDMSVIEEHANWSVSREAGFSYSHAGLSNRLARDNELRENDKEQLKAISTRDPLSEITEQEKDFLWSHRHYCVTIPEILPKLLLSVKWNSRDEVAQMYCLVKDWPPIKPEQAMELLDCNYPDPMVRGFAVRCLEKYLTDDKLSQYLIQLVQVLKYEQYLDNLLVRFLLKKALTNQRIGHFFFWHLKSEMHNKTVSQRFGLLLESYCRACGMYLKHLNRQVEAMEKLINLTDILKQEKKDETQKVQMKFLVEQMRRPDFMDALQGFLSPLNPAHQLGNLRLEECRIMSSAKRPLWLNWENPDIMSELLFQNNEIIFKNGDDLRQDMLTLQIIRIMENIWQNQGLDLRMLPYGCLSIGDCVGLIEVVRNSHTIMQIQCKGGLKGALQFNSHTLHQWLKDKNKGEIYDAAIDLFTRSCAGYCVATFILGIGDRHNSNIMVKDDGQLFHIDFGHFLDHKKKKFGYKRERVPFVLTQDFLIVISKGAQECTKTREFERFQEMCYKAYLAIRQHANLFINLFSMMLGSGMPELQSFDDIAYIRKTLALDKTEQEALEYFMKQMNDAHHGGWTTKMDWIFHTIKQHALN

SMILES | pIC50
Cn1cc(-c2cnc3c(N4CCOCC4)nc(-c4ccc(NC(=O)Nc5ccc(C(N)=O)cc5)cc4)nc3c2)cn1 | > 7.30
CN(C)C(=O)c1ccc(NC(=O)Nc2ccc(-c3nc(N4CCOCC4)c4ccc(-c5cnc(N(C)C)nc5)cc4n3)c(F)c2)cc1 | > 7.30
CN1CCN(C(=O)c2ccc(NC(=O)Nc3ccc(-c4nc(N5CCOCC5)c5ccc(-c6cccc(S(C)(=O)=O)c6)cc5n4)cc3)cc2)CC1 | > 7.30
CC(=O)c1ccc(-c2ccc3c(N4CCOCC4)nc(-c4ccc(NC(=O)Nc5ccc(C(=O)N(C)C)cc5)cc4)nc3c2)o1 | > 7.30
N[C@H]1CCN(C(=O)c2ccc(NC(=O)Nc3ccc(-c4nc(N5CCOCC5)c5ccc(-c6cncnc6)cc5n4)cc3F)cc2)C1 | > 7.30
CN(C)[C@@H]1CCN(C(=O)c2ccc(NC(=O)Nc3ccc(-c4nc(N5CCOCC5)c5ccc(-c6cncnc6)cc5n4)cc3)cc2)C1 | > 7.30
CN(C)C(=O)c1ccc(NC(=O)Nc2ccc(-c3nc(N4CCOCC4)c4cccc(-c5ccc(F)nc5)c4n3)cc2)cc1 | 6.70 to 7.30
CC(=O)Nc1ccc(NC(=O)Nc2ccc(-c3nc(N4CCOCC4)c4ncc(-c5cnn(C)c5)cc4n3)cc2)cc1 | > 7.30
COc1ccncc1-c1ccc2c(N3CCOCC3)nc(-c3ccc(NC(=O)Nc4ccc(C(=O)N(C)C)cc4)cc3)nc2c1 | > 7.30
CN(C)C(=O)c1ccc(NC(=O)Nc2ccc(-c3nc(N4CCOCC4)c4ncc(-c5cccnc5F)cc4n3)cc2)cc1 | > 7.30
N[C@H]1CCN(C(=O)c2ccc(NC(=O)Nc3ccc(-c4nc(N5CCOCC5)c5ccc(-c6cncnc6)cc5n4)cc3)cc2)C1 | > 7.30
Cc1ccc(-c2ccc3c(N4CCOCC4)nc(-c4ccc(NC(=O)Nc5ccc(C(=O)N(C)C)cc5)nc4)nc3c2)o1 | > 7.30
CN(C)CC(=O)Nc1cncc(-c2ccc3c(N4CCOCC4)nc(-c4ccc(NC(=O)Nc5ccc(C(=O)N(C)C)cc5)cc4)nc3c2)c1 | > 7.30
Cc1noc(C)c1-c1ccc2c(N3CCOCC3)nc(-c3ccc(NC(=O)Nc4ccc(C(=O)N5CC[C@H](N(C)C)C5)cc4)c(F)c3)nc2c1 | 6.70 to 7.30
CN(C)C(=O)c1ccc(NC(=O)Nc2ccc(-c3nc(N4CCOCC4)c4ccc(-c5cnc(O)nc5)cc4n3)cc2)cc1 | > 7.30
CC(=O)Nc1ccc(NC(=O)Nc2ccc(-c3nc(N4CCOCC4)c4ccc(-c5ccc(C)o5)cc4n3)cc2)cc1 | 6.70 to 7.30
CN(C)C(=O)c1ccc(NC(=O)Nc2ccc(-c3nc(N4CCOCC4)c4cc(F)c(-c5cccc(S(C)(=O)=O)c5)cc4n3)cc2)cc1 | > 7.30
CN(C)C(=O)c1ccc(NC(=O)Nc2ccc(-c3nc(N4CCOCC4)c4ccc(-c5cncnc5)cc4n3)cc2F)cn1 | 6.70 to 7.30
CN(C)C(=O)c1ccc(NC(=O)Nc2ccc(-c3nc(N4CCOCC4)c4ccc(-c5cncnc5)cc4n3)cc2)cc1F | > 7.30
CN(C)C(=O)c1ccc(NC(=O)Nc2ccc(-c3nc(N4CCOCC4)c4ncc(-c5cnn(C)c5)cc4n3)cn2)cc1 | > 7.30
CN(C)C(=O)c1ccc(NC(=O)Nc2ccc(-c3nc(N4CCOCC4)c4ccc(-c5cncnc5)cc4n3)c(F)c2)cc1 | > 7.30
CN(C)C(=O)c1ccc(NC(=O)Nc2ccc(-c3nc(N4CCOCC4)c4ccc(-c5ccsc5)cc4n3)cc2)cc1 | > 7.30
CN(C)C(=O)c1ccc(NC(=O)Nc2ccc(-c3nc(N4CCOCC4)c4ncc(-c5cnn(C)c5)cc4n3)cc2F)cn1 | > 7.30

SMILES | pIC50
Cc1ccc(-c2ccc3c(N4CCOCC4)nc(-c4ccc(NC(=O)Nc5ccc(C(=O)N6CCN(C)CC6)cc5)cc4)nc3c2)o1 | 6.70 to 7.30
Cc1noc(C)c1-c1ccc2c(N3CCOCC3)nc(-c3ccc(NC(=O)Nc4ccc(C(=O)N(C)C)cc4)cc3F)nc2c1 | 6.70 to 7.30
CN(C)C(=O)c1ccc(NC(=O)Nc2ccc(-c3nc(N4CCOCC4)c4ccc(-c5cccc(F)c5)cc4n3)cc2)cc1 | 6.70 to 7.30
N[C@@H]1CCN(C(=O)c2ccc(NC(=O)Nc3ccc(-c4nc(N5CCOCC5)c5ccc(-c6cncnc6)cc5n4)cc3)cc2)C1 | > 7.30
CN(C)CCNC(=O)c1ccc(-c2ccc3c(N4CCOCC4)nc(-c4ccc(NC(=O)Nc5ccc(C(=O)N(C)C)cc5)cc4)nc3c2)o1 | 6.70 to 7.30
CN(C)C(=O)c1ccc(NC(=O)Nc2ccc(-c3nc(N4CCOCC4)c4ncc(-c5ccc(CO)o5)cc4n3)cc2F)cc1 | > 7.30
CC(O)c1ccc(-c2ccc3c(N4CCOCC4)nc(-c4ccc(NC(=O)Nc5ccc(C(=O)N(C)C)cc5)c(F)c4)nc3c2)o1 (configuration not stated) | > 7.30
CN1CCN(C(=O)c2ccc(NC(=O)Nc3ccc(-c4nc(N5CCOCC5)c5cc(F)c(-c6cccnc6)cc5n4)cc3)cc2)CC1 | > 7.30
CN(C)C(=O)c1ccc(NC(=O)Nc2ccc(-c3nc(N4CCOCC4)c4ccc(-c5ccco5)cc4n3)c(F)c2F)cc1 | 6.70 to 7.30
COc1ncc(-c2ccc3c(N4CCOCC4)nc(-c4ccc(NC(=O)Nc5ccc(C(=O)N(C)C)c(F)c5)cc4)nc3c2)cn1 | > 7.30
CC1CN(c2nc(-c3ccc(NC(=O)Nc4ccc(C(=O)N(C)C)cc4)c(F)c3)nc3cc(-c4cncnc4)ccc23)CCO1 (configuration not stated) | 6.70 to 7.30
CN(C)C(=O)c1ccc(NC(=O)Nc2ccc(-c3nc(N4CCOCC4)c4ccc(-c5cccc(S(C)(=O)=O)c5)cc4n3)c(F)c2)cc1 | > 7.30
Cc1ccc(-c2ccc3c(N4CCOCC4)nc(-c4ccc(NC(=O)Nc5ccc(C(=O)N(C)C)cc5)cc4F)nc3c2)o1 | 6.70 to 7.30
CC(=O)Nc1ccc(NC(=O)Nc2ccc(-c3nc(N4CCOCC4)c4ccc(-c5cncnc5)cc4n3)cc2)cc1 | > 7.30
CN(C)C(=O)c1ccc(NC(=O)Nc2ccc(-c3nc(N4CCOCC4)c4ccc(-c5cnc(N)nc5)cc4n3)cc2)cc1 | > 7.30
CN(C)C(=O)c1ccc(NC(=O)Nc2ccc(-c3nc(N4CCOCC4)c4ccc(-c5cnn(C)c5)cc4n3)cn2)cc1 | > 7.30
CN(C)C(=O)c1ccc(NC(=O)Nc2ccc(-c3nc(N4CCOCC4)c4cc(F)c(-c5cncnc5)cc4n3)cc2)c(F)c1 | 6.70 to 7.30
CNC(=O)c1ccc(NC(=O)Nc2ccc(-c3nc(N4CCOCC4)c4ccc(-c5ccco5)cc4n3)cc2)cc1 | > 7.30
Cc1ccc(-c2ccc3c(N4CCOCC4)nc(-c4ccc(NC(=O)Nc5ccc(C(=O)NCCN(C)C)cc5)cc4)nc3c2)o1 | 6.70 to 7.30
Cc1ncccc1-c1ccc2c(N3CCOCC3)nc(-c3ccc(NC(=O)Nc4ccc(C(=O)N(C)C)cc4)cc3F)nc2c1 | > 7.30
CN(C)C(=O)c1ccc(NC(=O)Nc2ccc(-c3nc(N4CCOCC4)c4ccc(-c5ccncc5)cc4n3)cc2)cc1 | > 7.30
CC1CN(c2nc(-c3ccc(NC(=O)Nc4ccc(C(=O)N(C)C)cc4)cc3)nc3cc(-c4cncnc4)ccc23)CCO1 (configuration not stated) | > 7.30
Cc1ccc(-c2ccc3c(N4CCOCC4)nc(-c4ccc(NC(=O)Nc5ccc(C(=O)N(C)C)cc5)cc4)nc3c2)s1 | 6.70 to 7.30

More lines, now with the values ahead:

pIC50 | SMILES
> 7.30 | CN(C)C(=O)c1ccc(NC(=O)Nc2ccc(-c3nc(N4CCOCC4)c4cc(F)c(-c5cccnc5)cc4n3)cc2)c(F)c1
> 7.30 | CN(C)C(=O)c1ccc(NC(=O)Nc2ccc(-c3nc(N4CCOCC4)c4ccc(-c5ccccn5)cc4n3)c(F)c2)cc1
> 7.30 | COc1ccc(-c2ccc3c(N4CCOCC4)nc(-c4ccc(NC(=O)Nc5ccc(C(=O)N(C)C)cc5)cc4)nc3c2)cn1
6.70 to 7.30 | CN(C)C(=O)c1ccc(NC(=O)Nc2ccc(-c3nc(N4CCOCC4)c4cc(F)c(-c5ccco5)cc4n3)cc2)cc1
6.70 to 7.30 | CN1CCN(C(=O)c2ccc(NC(=O)Nc3ccc(-c4nc(N5CCOCC5)c5ccc(-c6cnn(C)c6)cc5n4)cc3)cc2)CC1
> 7.30 | CN(C)C(=O)c1ccc(NC(=O)Nc2ccc(-c3nc(N4CCOCC4)c4cc(F)c(-c5cncnc5)cc4n3)cc2F)cc1
6.70 to 7.30 | CN(C)C(=O)c1ccc(NC(=O)Nc2ccc(-c3nc(N4CCOCC4)c4cc(F)c(-c5cnn(C)c5)cc4n3)cc2F)cc1
6.70 to 7.30 | CN(C)C(=O)c1ccc(NC(=O)Nc2ccc(-c3nc(N4CCOCC4)c4ccc(-c5cccc(S(C)(=O)=O)c5)cc4n3)cc2)cn1
> 7.30 | CN(C)C(=O)c1ccc(NC(=O)Nc2ccc(-c3nc(N4CCOCC4)c4ncc(-c5cnc(N)nc5)cc4n3)cc2)cc1
> 7.30 | CN(C)C(=O)c1ccc(NC(=O)Nc2ccc(-c3nc(N4CCOCC4)c4ccc(-c5cccc(NS(C)(=O)=O)c5)cc4n3)cc2)cc1
> 7.30 | CN(C)C(=O)c1ccc(NC(=O)Nc2ccc(-c3nc(N4CCOCC4)c4ccc(-c5ccncc5F)cc4n3)cc2)cc1
6.70 to 7.30 | CN(C)C(=O)c1ccc(NC(=O)Nc2ccc(-c3nc(N4CCOCC4)c4ccc(-c5cnn(C)c5)cc4n3)c(F)c2)cc1
> 7.30 | CN(C)C(=O)c1ccc(NC(=O)Nc2ccc(-c3nc(N4CCOCC4)c4ncc(-c5cccnc5)cc4n3)cc2)c(F)c1
6.70 to 7.30 | COc1ncc(-c2ccc3c(N4CCOCC4)nc(-c4ccc(NC(=O)Nc5ccc(C(=O)N(C)C)cc5)c(F)c4)nc3c2)cn1
> 7.30 | CN(C)C(=O)c1ccc(NC(=O)Nc2ccc(-c3nc(N4CCOCC4)c4ccc(-c5ccco5)cc4n3)cn2)cc1
6.70 to 7.30 | CN(C)CCNC(=O)c1ccc2c(N3CCOCC3)nc(-c3ccc(NC(=O)Nc4ccc(C(=O)N(C)C)cc4)cc3)nc2c1
> 7.30 | CN(C)C(=O)c1ccc(NC(=O)Nc2ccc(-c3nc(N4CCOCC4)c4ncc(-c5cccnc5)cc4n3)cc2F)cc1
6.70 to 7.30 | CN(C)CCn1cc(-c2ccc3c(N4CCOCC4)nc(-c4ccc(NC(=O)Nc5ccc(C(=O)N(C)C)cc5)cc4)nc3c2)cn1
6.70 to 7.30 | CN(C)[C@H]1CCN(C(=O)c2ccc(NC(=O)Nc3ccc(-c4nc(N5CCOCC5)c5ccc(C(C)(C)O)cc5n4)cc3)cc2)C1
6.70 to 7.30 | COc1cccc(-c2ccc3c(N4CCOCC4)nc(-c4ccc(NC(=O)Nc5ccc(C(=O)N(C)C)cc5)cc4)nc3c2)n1
> 7.30 | COc1ccc2c(N3CCOCC3)nc(-c3ccc(NC(=O)Nc4ccc(C(=O)N(C)C)cc4)cc3)nc2c1
> 7.30 | CN(C)C(=O)c1ccc(NC(=O)Nc2ccc(-c3nc(N4CCOCC4)c4ccc(-c5cnc6ccccc6c5)cc4n3)cc2)cc1
> 7.30 | Cc1nn(C)c(C)c1-c1ccc2c(N3CCOCC3)nc(-c3ccc(NC(=O)Nc4ccc(C(=O)N(C)C)cc4)cc3)nc2c1
> 7.30 | CN(C)C(=O)c1ccc(NC(=O)Nc2ccc(-c3nc(N4CCOCC4)c4cc(F)c(-c5cncnc5)cc4n3)cc2)cc1
6.70 to 7.30 | Cc1ccc(-c2ccc3c(N4CCOCC4)nc(-c4ccc(NC(=O)Nc5ccc(C(=O)N(C)C)nc5)c(F)c4)nc3c2)o1
6.70 to 7.30 | Cc1ccncc1-c1cnc2c(N3CCOCC3)nc(-c3ccc(NC(=O)Nc4ccc(C(=O)N(C)C)cc4)c(F)c3)nc2c1
